# In ChEMBL document CHEMBL5620367, “Discovery of new tetrahydroisoquinolines as potent and selective LSD1 inhibitors for the treatment of MLL-rearranged leukemia” (Eur J Med Chem, 2023):
# Activity calls are given as the source filed them. The rule behind the calls is not given here.
# Key:
# [1] = biological target: T1, MAO-A (amine oxidase [flavin-containing] A) (Homo sapiens, UniProt P21397); assay: Inhibition of N-terminal FLAG-tagged recombinant human MAO-A expressed in baculovirus infected Sf9 cells upto 10 uM preincubated for 15 mins followed by addition of luciferin derivative substrate measured after 1 hr by Luciferase Glo assay relative to control; conditions: probe luciferin derivative substrate, time 75 min
# T1 sequence (P21397 whole entry): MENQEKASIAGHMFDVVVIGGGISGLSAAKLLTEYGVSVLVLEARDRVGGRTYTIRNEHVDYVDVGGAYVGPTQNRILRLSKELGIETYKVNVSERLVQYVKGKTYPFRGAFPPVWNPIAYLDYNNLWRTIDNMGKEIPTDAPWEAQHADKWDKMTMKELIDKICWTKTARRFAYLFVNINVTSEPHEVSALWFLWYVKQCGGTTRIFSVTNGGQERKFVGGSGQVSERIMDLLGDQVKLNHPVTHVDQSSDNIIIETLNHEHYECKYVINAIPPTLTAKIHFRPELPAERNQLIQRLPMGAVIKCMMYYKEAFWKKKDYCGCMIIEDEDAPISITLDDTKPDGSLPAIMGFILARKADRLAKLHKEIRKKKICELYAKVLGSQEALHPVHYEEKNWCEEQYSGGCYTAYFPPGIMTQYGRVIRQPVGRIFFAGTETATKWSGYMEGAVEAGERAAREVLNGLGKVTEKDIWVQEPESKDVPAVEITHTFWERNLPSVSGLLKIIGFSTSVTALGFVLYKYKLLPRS
# MV4-11 [2] = assay: Cytotoxicity against human MV4-11 cells incubated for 7 days by CCK8 assay; conditions: MV4-11, 168 h
# MV4-11 [3] = assay: Anti-cancer activity against human MV4-11 cells assessed as reduction in HoxA9 mRNA level upto 100 uM by qRT-PCR analysis; type: functional, cell-based
# MV4-11 [4] = assay: Anti-cancer activity against human MV4-11 cells assessed as reduction in Meis1 mRNA level upto 100 uM by qRT-PCR analysis; type: functional, cell-based
# MOLM-13 [5] = assay: Induction of cell differentiation in human MOLM-13 cells assessed as increase in CD11b level upto 400 uM incubated for 7 days […]; type: functional, cell-based; conditions: time 7.0 day
# MV4-11 [6] = assay: Induction of cell differentiation in human MV4-11 cells assessed as increase in CD11b level upto 400 uM incubated for 7 days […]; type: functional, cell-based; conditions: time 7.0 day
# MOLM-13 [7] = assay: Induction of cell differentiation in human MOLM-13 cells assessed as CD11b level at 10 uM incubated for 3 days by Annexin V staining based flow cytometry (reference value: 13.77 %); type: functional; conditions: time 3 day
# MV4-11 [8] = assay: Induction of cell differentiation in human MV4-11 cells assessed as CD11b level at 10 uM incubated for 3 days by Annexin V staining based flow cytometry (reference value: 8.58 %); type: functional; conditions: time 3 day
# MV4-11 [9] = assay: Induction of cell differentiation in human MV4-11 cells assessed as CD11b level at 100 uM incubated for 3 days by Annexin V staining based flow cytometry (reference value: 8.58 %); type: functional; conditions: time 3 day
# MOLM-13 [10] = assay: Induction of cell differentiation in human MOLM-13 cells assessed as increase in CD14 level upto 100 uM incubated for 3 days by Annexin V staining based flow cytometry; type: functional; conditions: time 3.0 day
# MOLM-13 [11] = assay: Induction of apoptosis in human MOLM-13 cells assessed as viable cells at 30 uM incubated for 3 days by Annexin V staining based flow cytometry (reference value: 90.54 %); type: functional; conditions: MOLM-13, 72 h, time 3 day, read-out: Activity
# MOLM-13 [12] = assay: Induction of apoptosis in human MOLM-13 cells assessed as early apoptotic cells at 30 uM incubated for 3 days by Annexin V staining based flow cytometry (reference value: 4.94 %); type: functional; conditions: time 3 day
# MOLM-13 [13] = assay: Induction of apoptosis in human MOLM-13 cells assessed as necrotic cells at 30 uM incubated for 3 days by Annexin V staining based flow cytometry (reference value: 1.23 %); type: functional; conditions: time 3 day
# MOLM-13 [14] = assay: Induction of apoptosis in human MOLM-13 cells assessed as early apoptotic cells at 100 uM incubated for 3 days by Annexin V staining based flow cytometry (reference value: 4.94 %); type: functional; conditions: time 3 day
# MOLM-13 [15] = assay: Induction of apoptosis in human MOLM-13 cells assessed as late apoptotic cells at 100 uM incubated for 3 days by Annexin V staining based flow cytometry (reference value: 3.29 %); type: functional; conditions: time 3 day
# MV4-11 [16] = assay: Induction of apoptosis in human MV4-11 cells assessed as early apoptotic cells at 10 uM incubated for 3 days by Annexin V staining based flow cytometry (reference value: […] %); type: functional; conditions: time 3 day
# MV4-11 [17] = assay: Induction of apoptosis in human MV4-11 cells assessed as late apoptotic cells at 30 uM incubated for 3 days by Annexin V staining based flow cytometry (reference value: 7.29 %); type: functional; conditions: time 3 day
# MV4-11 [18] = assay: Induction of apoptosis in human MV4-11 cells assessed as viable cells at 100 uM incubated for 3 days by Annexin V staining based flow cytometry (reference value: 89.63 %); type: functional; conditions: MV4-11, 72 h, time 3 day, read-out: Activity
# MV4-11 [19] = assay: Induction of apoptosis in human MV4-11 cells assessed as early apoptotic cells at 100 uM incubated for 3 days by Annexin V staining based flow cytometry (reference value: […] %); type: functional; conditions: time 3 day
# MV4-11 [20] = assay: Induction of apoptosis in human MV4-11 cells assessed as late apoptotic cells at 100 uM incubated for 3 days by Annexin V staining based flow cytometry (reference value: 7.29 %); type: functional; conditions: time 3 day
# MV4-11 [21] = assay: Induction of apoptosis in human MV4-11 cells assessed as necrotic cells at 100 uM incubated for 3 days by Annexin V staining based flow cytometry (reference value: 2.45 %); type: functional; conditions: time 3 day
# MOLM-13 [22] = assay: Induction of apoptosis in human MOLM-13 cells assessed as increase in p53 level upto 100 uM incubated for 3 days by Western blot analysis; type: functional, cell-based; conditions: time 3.0 day
# MV4-11 [23] = assay: Induction of apoptosis in human MV4-11 cells assessed as increase in p53 level upto 100 uM incubated for 3 days by Western blot analysis; type: functional, cell-based; conditions: time 3.0 day
# MV4-11 [24] = assay: Antitumor activity against human MV4-11 cells xenografted in NOD-SCID mouse assessed as increase in RBC at 50 to 78.7 mg/kg, sc measured after 33 days; type: functional, organism-based; conditions: dose 50-78.7 mg/kg, time 33.0 day
# MV4-11 [25] = assay: Antitumor activity against human MV4-11 cells xenografted in NOD-SCID mouse assessed as increase in hemoglobin level at 50 to 78.7 mg/kg, sc measured after 33 days; type: functional, organism-based; conditions: dose 50-78.7 mg/kg, time 33.0 day
# [26] = Toxicity in NOD-SCID mouse xenografted with human MV4-11 cells assessed as hunch-back posture at 50 to 78.7 mg/kg, sc measured after 33 days; type: organism-based; conditions: in vivo, 792 h, dose 50-78.7 mg/kg, time 33 day
# [27] = Toxicity in NOD-SCID mouse xenografted with human MV4-11 cells assessed as change in fur morphology at 50 to 78.7 mg/kg, sc measured after 33 days; type: organism-based; conditions: in vivo, 792 h, dose 50-78.7 mg/kg, time 33 day
compound,measurement,setting,value
O=C(O)C(F)(F)F.O=[N+]([O-])c1ccc(C2NCCc3cc(O)c(O)cc32)cc1 (configuration not stated),"inhibition at 1 h, up to 10 µM",[1],< 30%
same,IC50,MV4-11 [2],42 µM
same,Activity,MV4-11 [3],Active
same,Activity,MV4-11 [4],Active
same,Activity,MOLM-13 [5],Active
same,Activity,MV4-11 [6],Active
same,Activity,MOLM-13 [7],29.35%
same,Activity,MV4-11 [8],14.39%
same,Activity,MV4-11 [9],69.19%
same,Activity,MOLM-13 [10],Active
same,viability at 30 µM,MOLM-13 [11],61.5%
same,Activity,MOLM-13 [12],7.55%
same,Activity,MOLM-13 [13],14.95%
same,Activity,MOLM-13 [14],9.46%
same,Activity,MOLM-13 [15],18.07%
same,Activity,MV4-11 [16],7.06%
same,Activity,MV4-11 [17],28.14%
same,viability at 100 µM,MV4-11 [18],49.9%
same,Activity,MV4-11 [19],9.09%
same,Activity,MV4-11 [20],32.33%
same,Activity,MV4-11 [21],15.9%
same,Activity,MOLM-13 [22],Active
same,Activity,MV4-11 [23],Active
same,Activity,MV4-11 [24],Active
same,Activity,MV4-11 [25],Active
same,Activity,[26],Toxic
same,Activity,[27],Toxic
